A word on the IC50: it is the concentration that gives 50% inhibition. A low value points to greater potency in that assay.

Experiment [1] addresses T1, HCV polymerase (NS5B) type 1a (Hepatitis C virus genotype 1a, UniProt P26664).
T1 construct: made in house; host or cells: Escherichia coli (by the 'similar method' of the 1b enzyme)
In words: Assay of enzyme (HCV polymerase) inhibitory activity, type 1a enzyme. It counts as biochemical, HCV type 1a (cloned from the blood of patients). The conditions noted are these: HCV polymerase inhibitory activity IC50, 1a, type 1a enzyme. An outline of the steps: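 NS5B Δ47 C-term His6 (type 1a, 1.5 μg/ml); substrate RNA 5 μg/ml; ATP/GTP/CTP 50 μM, UTP 2 μM + [5,6-3H]UTP; Tris pH 7.5, MgCl2 5 mM; 25° C, 60 min. TCA/pyrophosphate stop, GF/B filter, scintillation. IC50 vs no-compound control.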

Experiment [2] concerns the target T2, HCV polymerase (NS5B) type 1b (Hepatitis C virus genotype 1b, UniProt P26663).
T2 construct: a region encoding NS5B (J Virol 1991 March, 65(3), 1105-13, 544 amino acids after deletion of 47 amino acids on the C-terminal); 6xHis (C); made in house; host or cells: Escherichia coli
Nature of the experiment: Assay of enzyme (HCV polymerase) inhibitory activity, type 1b enzyme. The conditions noted are these: HCV polymerase inhibitory activity IC50, 1b, type 1b enzyme. It is filed as biochemical, HCV BK strain (type 1b). An outline of the steps:
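Rxn: NS5B 1b (BK, ΔC47, His6) 0.5 μg/ml; substrate RNA 5 μg/ml; ATP/GTP/CTP 50 μM, UTP 2 μM + [5,6-3H]UTP; 20 mM Tris pH 7.5, 5 mM MgCl2, 50 mM NaCl, 1 mM EDTA/DTT. 25 °C, 60 min. Stop with TCA/pyrophosphate, filter, scintillation count; IC50 vs. untreated.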

In the case of `COc1ccccc1CCNC(=O)[C@H]1CN(C(C)=O)CCN1S(=O)(=O)c1ccc(OC(F)(F)F)cc1` [Example 671, (R)-4-acetyl-1-(4-trifluoromethoxy-benzenesulfonyl)-piperazine-2-carboxylic acid [2-(2-methoxy-phenyl)-ethyl]-amide], the concentration for half-maximal inhibition (IC50) in experiment [1] and in experiment [2] was more than 1000 nM throughout.
With `COc1cccc(CCNC(=O)[C@H]2CN(C(C)=O)CCN2S(=O)(=O)c2ccc(OC(F)(F)F)cc2)c1` [Example 672, (R)-4-acetyl-1-(4-trifluoromethoxy-benzenesulfonyl)-piperazine-2-carboxylic acid [2-(3-methoxy-phenyl)-ethyl]-amide], the IC50 in experiment [1] and in experiment [2] was more than 1000 nM in each case.
For `COc1ccc(CCNC(=O)[C@H]2CN(C(C)=O)CCN2S(=O)(=O)c2ccc(OC(F)(F)F)cc2)cc1` [Example 673, (R)-4-acetyl-1-(4-trifluoromethoxy-benzenesulfonyl)-piperazine-2-carboxylic acid [2-(4-methoxy-phenyl)-ethyl]-amide], the IC50 in experiment [1] and in experiment [2] was more than 1000 nM each time.
As for `CC(=O)N1CCN(S(=O)(=O)c2ccc(OC(F)(F)F)cc2)[C@@H](C(=O)NCCc2cccc(O)c2)C1` [Example 674, (R)-4-acetyl-1-(4-trifluoromethoxy-benzenesulfonyl)-piperazine-2-carboxylic acid [2-(3-hydroxy-phenyl)-ethyl]-amide], the half-maximal inhibitory concentration (IC50) in experiment [1] and in experiment [2] was more than 1000 nM each time.
As to `CC(=O)N1CCN(S(=O)(=O)c2ccc(OC(F)(F)F)cc2)[C@@H](C(=O)NCCc2ccc(O)cc2)C1` [Example 675, (R)-4-acetyl-1-(4-trifluoromethoxy-benzenesulfonyl)-piperazine-2-carboxylic acid [2-(4-hydroxy-phenyl)-ethyl]-amide], the IC50 in experiment [1] and in experiment [2] was more than 1000 nM each time.
`CCC(F)(F)c1ccc(CNC(=O)[C@H]2CN(c3cnc4[nH]cnc4n3)CCN2S(=O)(=O)c2ccc(OC(F)(F)F)cc2)cc1` [Example 676, (R)-4-(1H-imidazo[4,5-b]pyrazin-5-yl)-1-(4-trifluoromethoxy-benzenesulfonyl)-piperazine-2-carboxylic acid 4-(1,1-difluoro-propyl)-benzylamide]: the IC50 in experiment [1] and in experiment [2] was less than 100 nM each time.
For `CCC(F)(F)c1ccc(CNC(=O)[C@H]2CN(C(=O)NCC(=O)O)CCN2S(=O)(=O)c2ccc(OC(F)(F)F)cc2)cc1` [Example 677, {[(R)-3-[4-(1,1-difluoro-propyl)-benzylcarbamoyl]-4-(4-trifluoromethoxy-benzenesulfonyl)-piperazine-1-carbonyl]-amino}-acetic acid], the half-maximal inhibitory concentration (IC50) in experiment [1] and in experiment [2] was more than 1000 nM each time.
As to `CCC(F)(F)c1ccc(CNC(=O)[C@H]2CN(C(=O)CC(=O)O)CCN2S(=O)(=O)c2ccc(OC(F)(F)F)cc2)cc1` [Example 678, 3-[(R)-3-[4-(1,1-difluoro-propyl)-benzylcarbamoyl]-4-(4-trifluoromethoxy-benzenesulfonyl)-piperazin-1-yl]-3-oxo-propionic acid], the IC50 in experiment [1] and in experiment [2] was more than 1000 nM throughout.
Regarding `CCC(F)(F)c1ccc(CNC(=O)[C@H]2CN(C(=O)C(=O)O)CCN2S(=O)(=O)c2ccc(OC(F)(F)F)cc2)cc1` [Example 679, [(R)-3-[4-(1,1-difluoro-propyl)-benzylcarbamoyl]-4-(4-trifluoromethoxy-benzenesulfonyl)-piperazin-1-yl]-oxo-acetic acid], the IC50 in experiment [1] and in experiment [2] was more than 1000 nM each time.
Consider `CCCn1ccc(CNC(=O)[C@H]2CN(c3cnc4cncnc4n3)CCN2S(=O)(=O)c2ccc(OC(F)(F)F)cc2)cc1=O` [Example 680, (R)-4-pteridin-7-yl-1-(4-trifluoromethoxy-benzenesulfonyl)-piperazine-2-carboxylic acid (2-oxo-1-propyl-1,2-dihydro-pyridin-4-ylmethyl)-amide], for which the results for the IC50 in experiment [1] and in experiment [2] were more than 1000 nM and 100 to 1000 nM, respectively.
In the case of `CCCN1CCC(CNC(=O)[C@H]2CN(C(C)=O)CCN2S(=O)(=O)c2ccc(OC(F)(F)F)cc2)CC1` [Example 681, (R)-4-acetyl-1-(4-trifluoromethoxy-benzenesulfonyl)-piperazine-2-carboxylic acid (1-propyl-piperidin-4-ylmethyl)-amide], the 50% inhibitory concentration (IC50) in experiment [1] and in experiment [2] was more than 1000 nM throughout.
As to `CC(=O)N1CCN(S(=O)(=O)c2ccc(OC(F)(F)F)cc2)[C@@H](C(=O)NCCc2ccccc2O)C1` [Example 682, (R)-4-acetyl-1-(4-trifluoromethoxy-benzenesulfonyl)-piperazine-2-carboxylic acid [2-(2-hydroxy-phenyl)-ethyl]-amide], the half-inhibitory concentration (IC50) in experiment [1] and in experiment [2] was more than 1000 nM each time.
With `CCC(F)(F)c1ccc(CNC(=O)[C@H]2CN(c3cnc4cncnc4n3)CCN2S(=O)(=O)c2ccc(Br)cc2)cc1` [Example 683, (R)-1-(4-bromo-benzenesulfonyl)-4-pteridin-7-yl-piperazine-2-carboxylic acid 4-(1,1-difluoro-propyl)-benzylamide], the IC50 in experiment [1] and in experiment [2] was less than 100 nM each time.
On to `CCC(F)(F)c1ccc(CNC(=O)[C@H]2CN(c3cnc4cc(Br)ccc4n3)CCN2S(=O)(=O)c2ccc(OC(F)(F)F)cc2)cc1` [Example 684, (R)-4-(6-bromo-quinoxalin-2-yl)-1-(4-trifluoromethoxy-benzenesulfonyl)-piperazine-2-carboxylic acid 4-(1,1-difluoro-propyl)-benzylamide], for which the IC50 in experiment [1] and in experiment [2] was 100 to 1000 nM each time.
For `CCC(F)(F)c1ccc(CNC(=O)[C@H]2CN(c3cnc4ccc(Br)cc4n3)CCN2S(=O)(=O)c2ccc(OC(F)(F)F)cc2)cc1` [Example 685, (R)-4-(7-bromo-quinoxalin-2-yl)-1-(4-trifluoromethoxy-benzenesulfonyl)-piperazine-2-carboxylic acid 4-(1,1-difluoro-propyl)-benzylamide], the IC50 in experiment [1] and in experiment [2] was 100 to 1000 nM each time.
Take `CCC(F)(F)c1ccc(CNC(=O)[C@H]2CN(c3cnc4cncnc4n3)CCN2S(=O)(=O)c2ccc(C(F)(F)F)cc2)cc1` [Example 686, (R)-4-pteridin-7-yl-1-(4-trifluoromethyl-benzenesulfonyl)-piperazine-2-carboxylic acid 4-(1,1-difluoro-propyl)-benzylamide]: the half-inhibitory concentration (IC50) in experiment [1] and in experiment [2] was less than 100 nM each time.
Turning to `CCCc1ccc(CNC(=O)[C@H]2CN(c3cnc(C(=O)O)cn3)CCN2S(=O)(=O)c2ccc(Br)cc2)cc1` [Example 687, (R)-4-(4-bromo-benzenesulfonyl)-3-(4-propyl-benzylcarbamoyl)-3,4,5,6-tetrahydro-2H-[1,2′]bipyrazinyl-5′-carboxylic acid], the IC50 in experiment [1] and in experiment [2] was less than 100 nM in each case.
As to `CCC(F)(F)c1ccc(CNC(=O)[C@H]2CN(c3cnc4cc(Cl)ccc4n3)CCN2S(=O)(=O)c2ccc(OC(F)(F)F)cc2)cc1` [Example 688, (R)-4-(6-chloro-quinoxalin-2-yl)-1-(4-trifluoromethoxy-benzenesulfonyl)-piperazine-2-carboxylic acid 4-(1,1-difluoro-propyl)-benzylamide], the IC50 in experiment [1] and in experiment [2] was 100 to 1000 nM throughout.
Consider `CC(C)(C)c1ccc(CNC(=O)[C@H]2CN(c3cnc4cnccc4n3)CCN2S(=O)(=O)c2ccc(OC(F)(F)F)cc2)cc1` [Example 689, (R)-4-pyrido[3,4-b]pyrazin-2-yl-1-(4-trifluoromethoxy-benzenesulfonyl)-piperazine-2-carboxylic acid 4-tert-butyl-benzylamide], for which the half-maximal inhibitory concentration (IC50) in experiment [1] and in experiment [2] was less than 100 nM in each case.
With `CCC(F)(F)c1ccc(CNC(=O)[C@H]2CN(c3cnc4nsnc4n3)CCN2S(=O)(=O)c2ccc(OC(F)(F)F)cc2)cc1` [Example 691, (R)-4-[1,2,5]thiadiazolo[3,4-b]pyrazin-5-yl-1-(4-trifluoromethoxy-benzenesulfonyl)-piperazine-2-carboxylic acid 4-(1,1-difluoro-propyl)-benzylamide], the IC50 in experiment [1] and in experiment [2] was less than 100 nM throughout.
Turning to `CCC(F)(F)c1ccc(CNC(=O)[C@H]2CN(c3cnc4cnc(C)nc4n3)CCN2S(=O)(=O)c2ccc(OC(F)(F)F)cc2)cc1` [Example 692, (R)-4-(2-methyl-pteridin-7-yl)-1-(4-trifluoromethoxy-benzenesulfonyl)-piperazine-2-carboxylic acid 4-(1,1-difluoro-propyl)-benzylamide], the 50% inhibitory concentration (IC50) in experiment [1] and in experiment [2] was less than 100 nM in each case.
For the molecule `CCOC(=O)c1ccc2nc(N3CCN(S(=O)(=O)c4ccc(OC(F)(F)F)cc4)[C@@H](C(=O)NCc4ccc(C(F)(F)CC)cc4)C3)cnc2c1` [Example 693, 2-[(R)-3-[4-(1,1-difluoro-propyl)-benzylcarbamoyl]-4-(4-trifluoromethoxy-benzenesulfonyl)-piperazin-1-yl]-quinoxaline-6-carboxylic acid ethyl ester], the half-inhibitory concentration (IC50) is more than 1000 nM in experiment [1] and 100 to 1000 nM in experiment [2].

The values above are taken from patent US8017612B2, “Piperazine compound and use thereof as a HCV polymerase inhibitor” (priority 2006, dated 2011).
